Experimental findings from patent US20230227449A1, “AMIDOPYRIMIDONE DERIVATIVES” (Hoffmann-La Roche Inc., priority 2020, published 2023) are described below.

pIC50: −log10 of the molar value. A value given as a limit tells only on which side of the number the result lay.

Sequence of Recombinant human Mat2a (P31153 whole entry): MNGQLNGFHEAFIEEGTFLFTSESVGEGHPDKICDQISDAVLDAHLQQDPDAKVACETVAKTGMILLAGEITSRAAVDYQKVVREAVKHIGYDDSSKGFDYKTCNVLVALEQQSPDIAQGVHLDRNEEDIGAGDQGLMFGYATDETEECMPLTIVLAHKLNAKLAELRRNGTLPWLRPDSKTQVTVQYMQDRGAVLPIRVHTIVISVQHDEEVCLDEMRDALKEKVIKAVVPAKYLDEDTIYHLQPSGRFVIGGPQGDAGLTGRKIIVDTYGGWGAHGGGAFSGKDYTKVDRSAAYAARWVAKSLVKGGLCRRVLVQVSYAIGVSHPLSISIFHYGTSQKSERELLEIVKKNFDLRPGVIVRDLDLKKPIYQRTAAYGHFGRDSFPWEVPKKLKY

In this experiment the target is Recombinant human Mat2a (Homo sapiens, UniProt P31153). The experiment can be described thus: Determination of Mat2A activity (384 well absorbance-based assay, Biomol Green). It is filed as biochemical. The conditions noted are these: 12.5 nM Mat2A, 100 μM ATP and Methionine, 2% DMSO, 120 minutes at RT, absorbance at 635 nm. As to the method:
Determination of Mat2A activity
Measurement of Mat2A inhibition is performed in 384 well format absorbance-based assay. Recombinant human Mat2a (12.5 nM) and serial diluted compounds in DMSO (range of concentrations from […] to 508 pM) or controls (DMSO) are incubated for 15 minutes at room temperature (RT) in assay buffer containing 50 mM HEPES pH 7.5, 50 mM KCl, 50 mM MgCl2, 0.01% Tween 20 and 10 mM DTT. The reaction is initiated by the addition of the combined substrates ATP and Methionine, each at a final concentration of 100 μM. Final assay condition are 12.5 nM Mat2A, 100 μM ATP and Methionine Substrates and 2% DMSO. After 120 minutes of incubation at RT, the reaction is stopped by the addition of Biomol Green. The absorbance signal is measured at λ=635 nm with a multiplate reader (BMG Pherastar reader or equivalent) after 30 min of equilibration at RT.
On to `COc1c(C#N)cccc1-n1c(=O)nc(N)c2ccc(C3CC3)nc21` [Example 19, 3-(4-amino-7-cyclopropyl-2-oxopyrido[2,3-d]pyrimidin-1(2H)-yl)-2-methoxybenzonitrile], for which the pIC50 (usually the negative decadic logarithm of the IC50, by convention in mol/L) is over 7.89.
For `CCOc1c(C#N)cccc1-n1c(=O)nc(N)c2ccc(C3CC3)nc21` [Example 20, 3-(4-amino-7-cyclopropyl-2-oxopyrido[2,3-d]pyrimidin-1(2H)-yl)-2-ethoxybenzonitrile] the value was 7.82.
In the case of `CC(C1CCCO1)n1c(=O)nc(N)c2ccc(C3CC3)nc21` (stereo not shown) [Example 21, 4-amino-7-cyclopropyl-1-(1-(tetrahydrofuran-2-yl)ethyl)pyrido[2,3-d]pyrimidin-2(1H)-one] it was 7.07; in that of `Cc1ncccc1-n1c(=O)nc(N)c2ccc(C3COC3)cc21` [Example 22, 4-amino-1-(2-methylpyridin-3-yl)-7-(oxetan-3-yl)quinazolin-2(1H)-one], 7.68; in that of `Cc1c(F)cccc1-n1c(=O)nc(N)c2ccc(C3CC3)nc21` [Example 25, 4-amino-7-cyclopropyl-1-(3-fluoro-2-methylphenyl)pyrido[2,3-d]pyrimidin-2(1H)-one], over 7.89.
In the case of `Nc1nc(=O)n([C@@H]2CCCOC2)c2nc(C3CC3)ccc12` [Example 26, 4-amino-7-cyclopropyl-1-[(3R)-oxan-3-yl]pyrido[2,3-d]pyrimidin-2-one] it was over 7.89.
As for `Nc1nc(=O)n([C@H]2CCCOC2)c2nc(C3CC3)ccc12` [Example 27, 4-amino-7-cyclopropyl-1-[(3S)-oxan-3-yl]pyrido[2,3-d]pyrimidin-2-one], the pIC50 is 7.38.
For `CC1COCC1n1c(=O)nc(N)c2ccc(C3CC3)nc21` (stereo not shown) [Example 28, 4-amino-7-cyclopropyl-1-(4-methyltetrahydro-furan-3-yl)pyrido[2,3-d]pyrimidin-2(1H)-one] the value was 7.24; for `Cc1ncccc1-n1c(=O)nc(N)c2ccc(C(F)(F)F)cc21` [Example 29, 4-amino-1-(2-methylpyridin-3-yl)-7-(trifluoromethyl)quinazolin-2-one], over 7.89.
For `Cc1ncccc1-n1c(=O)nc(N)c2ccc(OC3CC3)cc21` [Example 31, 4-amino-7-cyclopropyloxy-1-(2-methylpyridin-3-yl)quinazolin-2-one] the value was 7.74.
In the case of `Cc1ncccc1-n1c(=O)nc(N)c2ccc(C(F)(F)F)nc21` [Example 32, 4-amino-1-(2-methylpyridin-3-yl)-7-(trifluoromethyl)pyrido[2,3-d]pyrimidin-2(1H)-one] it was over 7.89.
Regarding `Nc1nc(=O)n(C2CCC(O)C2)c2nc(C3CC3)ccc12` (stereo not shown) [Example 33, 4-amino-7-cyclopropyl-1-(3-hydroxycyclopentyl)pyrido[2,3-d]pyrimidin-2(1H)-one], the pIC50 is over 7.89.
In the case of `Cc1ncccc1-n1c(=O)nc(N)c2ccc(OC(F)F)cc21` [Example 34] it was over 7.89; in that of `Cc1ncccc1-n1c(=O)nc(N)c2ccc(C(F)F)cc21` [Example 35, 4-amino-7-(difluoromethyl)-1-(2-methylpyridin-3-yl)quinazolin-2(1H)-one], over 7.89; in that of `Cc1ncccc1-n1c(=O)nc(N)c2cc(C#N)c(C3CC3)nc21` [Example 37, 4-amino-7-cyclopropyl-1-(2-methylpyridin-3-yl)-2-oxo-1,2-dihydropyrido[2,3-d]pyrimidine-6-carbonitrile], 7.82.
For `COc1c(C#N)cccc1-n1c(=O)nc(N)c2ccc(C(C)C)nc21` [Example 38, 3-(4-amino-7-isopropyl-2-oxopyrido[2,3-d]pyrimidin-1(2H)-yl)-2-methoxybenzonitrile] the value was over 7.89; for `COc1ccc2c(N)nc(=O)n(-c3cccnc3C)c2c1` [Example 39, 4-amino-7-methoxy-1-(2-methylpyridin-3-yl)quinazolin-2(1H)-one], over 7.89.
For `Cc1ncccc1-n1c(=O)nc(N)c2ccc(OC(F)(F)F)cc21` [Example 40, 4-amino-1-(2-methylpyridin-3-yl)-7-(trifluoromethoxy)quinazolin-2(1H)-one] the value was over 7.89; for `Cc1ncccc1-n1c(=O)nc(N)c2ccc(C3=COCC3)nc21` [Example 41, 4-amino-7-(4,5-dihydrofuran-3-yl)-1-(2-methylpyridin-3-yl)pyrido[2,3-d]pyrimidin-2 (1H)-one], 7.35; for `Cc1ncncc1-n1c(=O)nc(N)c2ccc(C3CC3)nc21` [Example 42, 4-amino-7-cyclopropyl-1-(4-methylpyrimidin-5-yl)pyrido[2,3-d]pyrimidin-2(1H)-one], over 7.89.
In the case of `Nc1nc(=O)n(-c2cccnc2C(F)(F)F)c2nc(C3CC3)ccc12` [Example 43, 4-amino-7-cyclopropyl-1-(2-(trifluoromethyl)pyridin-3-yl)pyrido[2,3-d]pyrimidin-2(1H)-one], the pIC50 is over 7.89.
For `Cn1nccc1-n1c(=O)nc(N)c2ccc(C3CC3)nc21` [Example 44, 4-amino-7-cyclopropyl-1-(2-methylpyrazol-3-yl)pyrido[2,3-d]pyrimidin-2-one], the pIC50 was over 7.89.
In the case of `Nc1nc(=O)n(-c2cccc3c2CCO3)c2cc(C3CC3)ccc12` [Example 45, 4-amino-7-cyclopropyl-1-(2,3-dihydrobenzofuran-4-yl)quinazolin-2(1H)-one] it was over 7.89.
For the compound `Nc1nc(=O)n([C@@H]2CCCOC2)c2cc(C(F)(F)F)ccc12` [Example 46, (R)-4-amino-1-(tetrahydro-2H-pyran-3-yl)-7-(trifluoromethyl)quinazolin-2(1H)-one], the pIC50 is 7.51.
For the compound `Cc1ccncc1-n1c(=O)nc(N)c2ccc(C3CC3)nc21` [Example 47, 4-amino-7-cyclopropyl-1-(4-methylpyridin-3-yl)pyrido[2,3-d]pyrimidin-2(1H)-one], the pIC50 was over 7.89.
Take `CCc1ccc2c(N)nc(=O)n(-c3cccnc3C)c2c1` [Example 48, 4-amino-7-ethyl-1-(2-methylpyridin-3-yl)quinazolin-2(1H)-one]: the pIC50 was over 7.89.
In the case of `Cc1ncoc1-n1c(=O)nc(N)c2ccc(C3CC3)nc21` [Example 50, 4-amino-7-cyclopropyl-1-(4-methyloxazol-5-yl)pyrido[2,3-d]pyrimidin-2-one] it was 7.72; in that of `Cc1ncsc1-n1c(=O)nc(N)c2ccc(C3CC3)nc21` [Example 51, 4-amino-7-cyclopropyl-1-(4-methylthiazol-5-yl)pyrido[2,3-d]pyrimidin-2-one], over 7.89.
In the case of `Cc1ccccc1-n1c(=O)nc(N)c2cnc(C3CC3)cc21` [Example 52, 4-amino-7-cyclopropyl-1-(o-tolyl)pyrido[4,3-d]pyrimidin-2(1H)-one] it was 7.37; in that of `Cc1ncccc1-n1c(=O)nc(N)c2ccc(C3CCC3)nc21` [Example 53, 4-amino-7-cyclobutyl-1-(2-methyl-3-pyridyl)pyrido[2,3-d]pyrimidin-2-one], over 7.89; in that of `COc1ncccc1-n1c(=O)nc(N)c2ccc(C3CCCCO3)nc21` (stereo not shown) [Example 54, 4-amino-1-(2-methoxy-3-pyridyl)-7-tetrahydropyran-2-yl-pyrido[2,3-d]pyrimidin-2-one], 6.85.
As for `Cc1ncncc1-n1c(=O)nc(N)c2ccc(C3CCCC3)nc21` [Example 55, 4-amino-7-cyclopentyl-1-(4-methylpyrimidin-5-yl)pyrido[2,3-d]pyrimidin-2-one], the pIC50 was 7.77.
In the case of `Cc1ncccc1-n1c(=O)nc(N)c2ccc(C3CCCC3)nc21` [Example 56, 4-amino-7-cyclopentyl-1-(2-methyl-3-pyridyl)pyrido[2,3-d]pyrimidin-2-one] it was over 7.89; in that of `Cc1ncccc1-n1c(=O)nc(N)c2ccc(C(C)(C)F)cc21` [Example 58, 4-amino-7-(2-fluoropropan-2-yl)-1-(2-methylpyridin-3-yl)quinazolin-2-one], 7.66; in that of `Cc1ncccc1-n1c(=O)nc(N)c2c(F)cc(C(F)(F)F)cc21` [Example 59, 4-amino-5-fluoro-1-(2-methylpyridin-3-yl)-7-(trifluoromethyl)quinazolin-2 (1H)-one], 7.85.
Take `COc1nccc(F)c1-n1c(=O)nc(N)c2ccc(C3CC3)nc21` [Example 60, 4-amino-7-cyclopropyl-1-(4-fluoro-2-methoxypyridin-3-yl)pyrido[2,3-d]pyrimidin-2(1H)-one]: the pIC50 was 7.70.
For `CCn1nccc1-n1c(=O)nc(N)c2ccc(C3CC3)nc21` [Example 61, 4-amino-7-cyclopropyl-1-(1-ethyl-1H-pyrazol-5-yl)pyrido[2,3-d]pyrimidin-2(1H)-one] the value was over 7.89; for `Cc1ccccc1-n1c(=O)nc(N)c2ccc(Cl)nc21` [Example 62, 4-amino-7-chloro-1-(o-tolyl)pyrido[2,3-d]pyrimidin-2(1H)-one], 7.70.
For `Nc1nc(=O)n(-c2cccc3c2OCC3)c2nc(C3CC3)ccc12` [Example 63, 4-amino-7-cyclopropyl-1-(2,3-dihydrobenzofuran-7-yl)pyrido[2,3-d]pyrimidin-2(1H)-one] the value was 7.82; for `Nc1nc(=O)n(-c2ccccc2Cl)c2nc(C3CC3)ccc12` [Example 64, 4-amino-1-(2-chlorophenyl)-7-cyclopropylpyrido[2,3-d]pyrimidin-2-one], over 7.89.
